Key:
Assay type in all cases: cell-based, human
Details in all cases: differentiating adipocytes transfected with oligomeric compound; Table 75
adipocytes = experiment: Triglyceride accumulation assay in adipocytes
Glut4 = Glut4 mRNA expression in adipocytes (real-time PCR)
aP2 = aP2 mRNA expression in adipocytes (real-time PCR)
HSL = HSL mRNA expression in adipocytes (real-time PCR)
PPARγ = PPARγ mRNA expression in adipocytes (real-time PCR)

Row | Substance | TG (triglyceride accumulation) (adipocytes) | GLUT4 mRNA (Glut4) | aP2 mRNA (aP2) | HSL mRNA (HSL) | PPAR gamma mRNA (PPARγ)
1 | 346694 (AACCCAUGGAAUUCAGUUCUCA; all 2'-MOE, all phosphorothioate, methylation of C and T or U not given here) [compound 346694] | 31 percentage of untreated control (UTC) | 5 percentage of untreated control (UTC) | 41 percentage of untreated control (UTC) | 18 percentage of untreated control (UTC) | 32 percentage of untreated control (UTC)
2 | 346695 (CACUGGUACAAGGGUUGGGAGA; all 2'-MOE, all phosphorothioate, methylation of C and T or U not given here) [compound 346695] | 69 percentage of untreated control (UTC) | 58 percentage of untreated control (UTC) | 72 percentage of untreated control (UTC) | 73 percentage of untreated control (UTC) | 78 percentage of untreated control (UTC)
3 | 346906 (ACAGGAUUGAGGGGGGGCCCU; all 2'-MOE, all phosphorothioate, methylation of C and T or U not given here) [compound 346906] | 83 percentage of untreated control (UTC) | 70 percentage of untreated control (UTC) | 77 percentage of untreated control (UTC) | 70 percentage of untreated control (UTC) | 80 percentage of untreated control (UTC)
4 | 346907 (AUGUAUGUGGGACGGUAAACCA; all 2'-MOE, all phosphorothioate, methylation of C and T or U not given here) [compound 346907] | 47 percentage of untreated control (UTC) | 37 percentage of untreated control (UTC) | 50 percentage of untreated control (UTC) | 36 percentage of untreated control (UTC) | 51 percentage of untreated control (UTC)
5 | 346908 (GCUUUGACAAUACUAUUGCACUG; all 2'-MOE, all phosphorothioate, methylation of C and T or U not given here) [compound 346908] | 75 percentage of untreated control (UTC) | 65 percentage of untreated control (UTC) | 77 percentage of untreated control (UTC) | 71 percentage of untreated control (UTC) | 77 percentage of untreated control (UTC)
6 | 346909 (UCACCAAAACAUGGAAGCACUUA; all 2'-MOE, all phosphorothioate, methylation of C and T or U not given here) [compound 346909] | 66 percentage of untreated control (UTC) | 64 percentage of untreated control (UTC) | 68 percentage of untreated control (UTC) | 64 percentage of untreated control (UTC) | 77 percentage of untreated control (UTC)
7 | 346910 (GCAAUCAGCUAACUACACUGCCU; all 2'-MOE, all phosphorothioate, methylation of C and T or U not given here) [compound 346910] | 80 percentage of untreated control (UTC) | 63 percentage of untreated control (UTC) | 78 percentage of untreated control (UTC) | 69 percentage of untreated control (UTC) | 83 percentage of untreated control (UTC)
8 | 346913 (AGAAAGGCAGCAGGUCGUAUAG; all 2'-MOE, all phosphorothioate, methylation of C and T or U not given here) [compound 346913] | 63 percentage of untreated control (UTC) | 40 percentage of untreated control (UTC) | 66 percentage of untreated control (UTC) | 58 percentage of untreated control (UTC) | 59 percentage of untreated control (UTC)
9 | 346914 (AUCUGCACUGUCAGCACUUUA; all 2'-MOE, all phosphorothioate, methylation of C and T or U not given here) [compound 346914] | 41 percentage of untreated control (UTC) | 16 percentage of untreated control (UTC) | 48 percentage of untreated control (UTC) | 27 percentage of untreated control (UTC) | 41 percentage of untreated control (UTC)
10 | 346915 (ACAUCGUUACCAGACAGUGUUA; all 2'-MOE, all phosphorothioate, methylation of C and T or U not given here) [compound 346915] | 73 percentage of untreated control (UTC) | 75 percentage of untreated control (UTC) | 83 percentage of untreated control (UTC) | 67 percentage of untreated control (UTC) | 90 percentage of untreated control (UTC)
11 | 346917 (CAGCUAUGCCAGCAUCUUGCCU; all 2'-MOE, all phosphorothioate, methylation of C and T or U not given here) [compound 346917] | 39 percentage of untreated control (UTC) | 20 percentage of untreated control (UTC) | 33 percentage of untreated control (UTC) | 27 percentage of untreated control (UTC) | 31 percentage of untreated control (UTC)
12 | 346919 (CUACCUGCACGAACAGCACUUUG; all 2'-MOE, all phosphorothioate, methylation of C and T or U not given here) [compound 346919] | 44 percentage of untreated control (UTC) | 50 percentage of untreated control (UTC) | 64 percentage of untreated control (UTC) | 45 percentage of untreated control (UTC) | 65 percentage of untreated control (UTC)
13 | 346920 (AGCAAAAAUGUGCUAGUGCCAAA; all 2'-MOE, all phosphorothioate, methylation of C and T or U not given here) [compound 346920] | 63 percentage of untreated control (UTC) | 61 percentage of untreated control (UTC) | 70 percentage of untreated control (UTC) | 53 percentage of untreated control (UTC) | 70 percentage of untreated control (UTC)
14 | 346921 (AACAACCAGCUAAGACACUGCCA; all 2'-MOE, all phosphorothioate, methylation of C and T or U not given here) [compound 346921] | 52 percentage of untreated control (UTC) | 51 percentage of untreated control (UTC) | 69 percentage of untreated control (UTC) | 49 percentage of untreated control (UTC) | 62 percentage of untreated control (UTC)
15 | 348116 (UUCGCCCUCUCAACCCAGCUUUU; anti-miR; all 2'-MOE, all phosphorothioate, methylation of C and T or U not given here) [compound 348116] | 43 percentage of untreated control (UTC) | 48 percentage of untreated control (UTC) | 79 percentage of untreated control (UTC) | 58 percentage of untreated control (UTC) | 76 percentage of untreated control (UTC)
16 | 348117 (GAACCCACAAUCCCUGGCUUA; all 2'-MOE, all phosphorothioate, methylation of C and T or U not given here) [compound 348117] | 66 percentage of untreated control (UTC) | 73 percentage of untreated control (UTC) | 70 percentage of untreated control (UTC) | 55 percentage of untreated control (UTC) | 65 percentage of untreated control (UTC)
17 | 348119 (UCCAUAAAGUAGGAAACACUACA; anti-miR; all 2'-MOE, all phosphorothioate, methylation of C and T or U not given here) [compound 348119] | 91 percentage of untreated control (UTC) | 86 percentage of untreated control (UTC) | 81 percentage of untreated control (UTC) | 76 percentage of untreated control (UTC) | 90 percentage of untreated control (UTC)
18 | 348124 (CACAAAUUCGGUUCUACAGGGUA; anti-miR; all 2'-MOE, all phosphorothioate, methylation of C and T or U not given here) [compound 348124] | 53 percentage of untreated control (UTC) | 41 percentage of untreated control (UTC) | 59 percentage of untreated control (UTC) | 43 percentage of untreated control (UTC) | 63 percentage of untreated control (UTC)
19 | 348125 (GCUGGAUGCAAACCUGCAAAACU; anti-miR; all 2'-MOE, all phosphorothioate, methylation of C and T or U not given here) [compound 348125] | 79 percentage of untreated control (UTC) | 65 percentage of untreated control (UTC) | 67 percentage of untreated control (UTC) | 64 percentage of untreated control (UTC) | 64 percentage of untreated control (UTC)

From patent US8178506B2, “Oligomeric compounds and compositions for use in modulation of small non-coding RNAs” (Regulus Therapeutics Inc., priority 2003, dated 2012)
